{"source": "patent US20120015809A1", "about": "(priority 2009, published 2012)", "system": "Ralstonia solanacearum (race 1, biovar 1; tomato strain Rs5)", "details": "72 h; for Number of colonies: mean ± standard error (n = 6)", "note": "Structures can show the parent of a compound that is named as a salt. Where two headings read alike, the source gives them in different places.", "data": [{"molecule": "[H]/N=C(/N)N[C@H]1[C@H](O)[C@@H](O)[C@H](O[C@@H]2O[C@@H](C)[C@](O)(C=O)[C@H]2O[C@@H]2O[C@@H](CO)[C@H](O)[C@@H](O)[C@@H]2NC)[C@@H](N/C(N)=N\\[H])[C@@H]1O", "note": "[Streptomycin, streptomycin sulfate]", "values": [{"measurement": "Mortality (%)", "setting": "200 mg kg^−1 soil", "result": 0.9, "unit": "%"}, {"measurement": "Number of colonies", "setting": "200 mg kg^−1 soil", "result": "256000 ± 16500"}, {"measurement": "Mortality (%)", "setting": "400 mg kg^−1 soil", "result": 11.9, "unit": "%"}, {"measurement": "Number of colonies", "setting": "400 mg kg^−1 soil", "result": "227000 ± 78100"}, {"measurement": "Mortality (%)", "setting": "800 mg kg^−1 soil", "result": 21.6, "unit": "%"}, {"measurement": "Mortality (%)", "setting": "800 mg kg^−1 soil, listed as streptomycin", "result": 21, "unit": "%"}, {"measurement": "Number of colonies", "setting": "800 mg kg^−1 soil", "result": "204000 ± 82900"}, {"measurement": "Mortality (%)", "setting": "1500 mg kg^−1 soil", "result": 75.3, "unit": "%"}, {"measurement": "Number of colonies", "setting": "1500 mg kg^−1 soil", "result": "63800 ± 42300"}]}]}
